# Experimental data as given in paper PMC2792043 (PLoS ONE, 2009).
# What was measured:
# [1] = molecular target: NA from influenza PR8 virus (Influenza A virus, UniProt P03468); assay: biochemical
# [2] = system: influenza A and B viruses; type: cell-based
# NA from influenza PR8 virus, sequence (P03468 whole entry, looked up): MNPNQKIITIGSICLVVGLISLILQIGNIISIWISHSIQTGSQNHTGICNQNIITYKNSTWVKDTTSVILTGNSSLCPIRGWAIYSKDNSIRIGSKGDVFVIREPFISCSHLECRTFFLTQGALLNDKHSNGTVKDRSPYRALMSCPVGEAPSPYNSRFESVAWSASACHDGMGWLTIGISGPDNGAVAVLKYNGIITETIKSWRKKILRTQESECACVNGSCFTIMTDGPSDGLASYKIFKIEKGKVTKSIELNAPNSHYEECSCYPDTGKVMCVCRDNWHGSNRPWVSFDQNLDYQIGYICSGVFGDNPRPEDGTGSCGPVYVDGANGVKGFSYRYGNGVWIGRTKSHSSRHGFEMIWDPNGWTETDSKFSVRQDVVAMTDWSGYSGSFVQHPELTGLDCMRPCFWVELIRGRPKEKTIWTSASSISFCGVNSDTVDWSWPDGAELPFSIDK
smiles,measurement,setting,value
"O=C(O)C1=CC(=C(c2ccc(O)c(C(=O)O)c2)c2ccc(O)c(C(=O)O)c2)C=CC1=O [ATA, Aurintricarboxylic acid]",IC50,[1],17 µM
same,replication after pre-incubation of virus with ATA,[2],inhibited replication of both WSN and H274Y viruses in a dose-responsive fashion
